Reference: patent publication US20230295152A1 (SENDA BIOSCIENCES, INC., priority 2019, published 2023)

Columns and labels:
[1] = target: T1, AHR (Homo sapiens, UniProt P35869); experiment: DRE-Luciferase Reporter Assay, HepG2 AhR-Lucia reporter cells; assay type: cell-based; conditions: with AHR activating ligand at EC50, read-out: HepG2-Luc IC50
T1 construct: other cell line with a DRE-luciferase reporter stably transfected; endogenous in cells; host or cells: HepG2 AhR-Lucia reporter cells
T1 sequence (P35869 11-848): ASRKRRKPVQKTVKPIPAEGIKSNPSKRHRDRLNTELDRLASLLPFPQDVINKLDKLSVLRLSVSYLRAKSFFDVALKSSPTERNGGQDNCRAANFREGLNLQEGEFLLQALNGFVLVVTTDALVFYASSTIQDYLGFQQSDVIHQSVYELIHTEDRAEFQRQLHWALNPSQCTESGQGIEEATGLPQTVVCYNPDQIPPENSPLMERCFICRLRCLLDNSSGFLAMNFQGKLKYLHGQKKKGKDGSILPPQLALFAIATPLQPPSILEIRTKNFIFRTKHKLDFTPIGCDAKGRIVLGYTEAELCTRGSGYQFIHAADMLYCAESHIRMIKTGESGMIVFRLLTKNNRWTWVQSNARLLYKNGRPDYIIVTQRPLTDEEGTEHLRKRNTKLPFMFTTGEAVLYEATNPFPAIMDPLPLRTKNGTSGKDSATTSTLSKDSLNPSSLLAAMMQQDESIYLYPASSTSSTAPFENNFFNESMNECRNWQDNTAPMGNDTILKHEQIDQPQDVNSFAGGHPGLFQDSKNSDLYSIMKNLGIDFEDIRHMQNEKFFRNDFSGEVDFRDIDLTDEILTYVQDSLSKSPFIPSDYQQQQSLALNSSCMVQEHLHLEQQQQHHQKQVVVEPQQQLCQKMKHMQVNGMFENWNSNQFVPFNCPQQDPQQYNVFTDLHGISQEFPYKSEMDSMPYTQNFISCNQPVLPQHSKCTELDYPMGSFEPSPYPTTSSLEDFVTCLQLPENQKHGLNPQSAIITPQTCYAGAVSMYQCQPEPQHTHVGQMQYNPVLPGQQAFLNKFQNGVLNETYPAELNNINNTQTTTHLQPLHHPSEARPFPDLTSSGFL
Procedure, shortened: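 DRE-luciferase reporter cells (e.g. HepG2 AhR-Lucia, 20000 cells) treated with antagonist log dilutions from 100 uM, then an AHR agonist (e.g. TCDD, kynurenine, ITE, FICZ) at its EC50 added after 1 hr. Secreted luciferase measured after 24 or 48 h (QUANTI-Luc); IC50 = concentration halving luciferase activity.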

[2] = Hepatocyte Stability Assay, rat; assay type: in vitro ADME; conditions: rat hepatocytes; further: tested at 1 µM
Experimental: • Preparation of working solutions: 10 mM stock solutions of test compound and positive control were prepared in DMSO. In separate conical tubes, the 10 mM solution of test compound and the positive control were diluted to 100 μM by combining 198 μL of 50% acetonitrile/50% water and 2 μL of 10 mM stock.
Preparation of Hepatocytes: Incubation medium (William's E Medium supplemented with GlutaMAX) and hepatocyte thawing medium were placed in a 37° C. water bath and allowed warming for at least 15 minutes prior to use. A vial of cryopreserved hepatocytes was transferred from storage, ensuring that vials remained at cryogenic temperatures until thawing process ensued. Cells were thawed by placing the vial in a 37° C. water bath and gently shaking the vials for 2 minutes. After thawing was completed, vial was sprayed with 70% ethanol and transferred to a biosafety cabinet. Wide-bore pipette tip were used to transfer hepatocytes into 50 mL conical tube containing thawing medium. The 50 mL conical tube were placed into a centrifuge and spun at 100 g for 10 minutes. Upon completion of spin, thawing medium was aspirated and resuspended hepatocytes in enough incubation medium to yield ˜1.5×10^6 cells/mL. Using an AO/PI Staining, cells were counted and the viable cell density was determined. Cells with poor viability (<75% viability) were determined to be not acceptable for use. Cells were diluted with incubation medium to a working cell density of 0.5×10^6 viable cells/mL.
Procedure for Stability Determination: 198 μL of hepatocytes were pipetted into each wells of a 96-well non-coated plate. The plate was placed in the incubator to allow the hepatocytes to warm for 10 minutes. 2 μL of the 100 μM test compound or positive control solutions were pipetted into respective wells of the 96-well non-coated plate to start the reaction. The plate was returned to the incubator for the designed time points. Well contents was transferred in 25 μL aliquots at time points of 0, 15, 30, 60, 90 and 120 minutes. The aliquots were then mixed with 6 volumes (150 μL) of acetonitrile containing internal standard, IS (100 nM alprazolam, 200 nM caffeine and 100 nM tolbutamide) to terminate the reaction. The mixture was vortex for 5 minutes. Samples were centrifuged for 45 minutes at 3,220 g. An aliquot of 100 μL of the supernatant was diluted by 100 μL ultra-pure water, and the mixture was used for LC/MS/MS analysis. All incubations were performed in duplicate.
Data Analysis: All calculations were carried out using Microsoft Excel. Peak areas were determined from extracted ion chromatograms. In vitro half-life (t1/2) of parent compound was determined by regression analysis of the percent parent disappearance vs. time curve.
The in vitro half-life (in vitro t1/2) was determined from the slope value:
Conversion of the in vitro t1/2 (in min) into the in vitro intrinsic clearance (in vitro CLint, in μL/min/1×10^6 cells) was done using the following equation (mean of duplicate determinations):
V=incubation volume(0.2 mL);
N=number of hepatocytes per well(0.1×10^6 cells).
“+++” indicates a CLint value less than 20 mL/min/Kg, “++” indicates a CLint between 20 and 50 mL/min/Kg, and “+” indicates an CLint above 50 mL/min/Kg.

| SMILES | IC50 [1] [nM] | Rat hepatocyte clearance [2] |
| --- | --- | --- |
| C[C@@H](CO)n1cnc2c(-c3cnn(C)c3)nc(-c3ccc(C(F)(F)F)nc3)cc2c1=O [Compound 68] | < 100 | +++ (“+++” indicates a CLint value less than 20 mL/min/Kg) |
| C[C@@H](CO)n1cnc2c(-c3cccnc3)nc(-c3ccc(C4CC4)nc3)cc2c1=O [Compound 74] | < 100 | ++ (“++” indicates a CLint between 20 and 50 mL/min/Kg) |
| O=c1c2cc(-c3ccc(C(F)(F)F)nc3)nc(-c3cccnc3)c2ncn1[C@@H]1COC[C@H]1O [Compound 79] | < 100 | +++ (“+++” indicates a CLint value less than 20 mL/min/Kg) |
| Cn1cc(-c2nc(-c3ccc(C(F)(F)F)cn3)cc3c(=O)n(CC(C)(C)O)cnc23)cn1 [Compound 103, 3-(2-hydroxy-2-methylpropyl)-8-(1-methyl-1H-pyrazol-4-yl)-6-(5-(trifluoromethyl)pyridin-2-yl)pyrido[3,4-d]pyrimidin-4(3H)-one] | < 100 | ++ (“++” indicates a CLint between 20 and 50 mL/min/Kg) |
| CC(C)(O)Cn1cnc2c(-c3cccnc3)nc(-c3ccc(C(F)(F)F)cn3)cc2c1=O [Compound 105] | < 100 | +++ (“+++” indicates a CLint value less than 20 mL/min/Kg) |
| O=c1c2cc(-c3ccc(Cl)cc3)nc(-c3cccnc3)c2ncn1[C@H]1COC[C@@H]1O [Compound 125, 6-(4-chlorophenyl)-3-((3S,4R)-4-hydroxytetrahydrofuran-3-yl)-8-(pyridin-3-yl)pyrido[3,4-d]pyrimidin-4(3H)-one] | < 100 | + (“+” indicates an CLint above 50 mL/min/Kg) |
